Values joined by “and” are separate entries in the source; they are usually repeats but may differ in a detail not shown here. Equal entries are not always repeated.
Columns and labels:
[1] = test system: souris; assay: Toxicity: maximal non-lethal dose DL-0, intraperitoneal; assay type: in vivo; conditions: mouse, i.p.
Experimental: La dose maximale non mortelle, DL-0, est supérieure à 128 mg/kg et inférieure à 256 mg/kg, chez la souris, par voie I.P. 2°) - Action sur le SNC
(§1) Le CRL 40827, en solution dans de l'eau distillée, a été administré par voie intrapéritonéale sous un volume de 20 ml/kg chez la souris mâle et un volume de 5 ml/kg chez le rat mâle. 1°) - Toxicité
La dose maximale non mortelle, DL-0, est supérieure à 64 mg/kg et inférieure à 128 mg/kg chez la souris mâle.
Le CRL 40854, en solution dans de l'eau distillée, a été administré par voie intrapéritonéale sous un volume de 20 ml/kg chez la souris màle et de 5 ml/kg chez le rat màle.
La dose maximale non mortelle DL-0 est supérieure à 128 mg/kg et inférieure à 256 mg/kg chez la souris.

[2] = test system: rats; assay: Interaction with amphetamine (stereotypies); assay type: in vivo, rat; conditions: rat
Experimental: L'amphétamine (2 mg/kg) est injectée par voie intrapéritonéale à des lots de 6 rats, 30 min après l'administration de CRL 40827. […] Interaction avec la réserpine
(§2) En procédant selon les modalités opératoires données ci-dessus pour le CRL 40827, on observe ce qui suit.

[3] = test system: chien anesthésié; assay: Cardiovascular and respiratory action, anaesthetised dog; assay type: in vivo
[4] = test system: rat anesthésié au Nembutal; assay: Biliary secretion, rat anaesthetised with Nembutal; assay type: in vivo; conditions: 1 to 3 h after I.V. injection of 5 mg/kg and 25 mg/kg
Experimental: (§3) Chez le chien anesthésié au Nembutal, le débit biliaire normal recueilli en 30 min est de 1,5 ml; le débit biliaire augmente après injection intraduodénale de CRL 40827 et passe à 1,75 ml pour 2,5 mg/kg de CRL 40827, à 2,25 ml pour 5 mg/kg et à 2,5 ml pour 10 mg/kg. Chez le rat anesthésié au Nembutal, le débit biliaire augmente 1 à 3 h après injection I.V. de CRL 40827 aux doses de 5 mg/kg et 25 mg/kg.

[5] = test system: souris mâles; assay: Intergroup aggressiveness test (number of fights after removal of the partition); assay type: in vivo; conditions: mouse; dose not given
Excerpt: Des essais comparatifs ont été entrepris pour mettre en évidence quels sont les effets chez l'animal qui permettent de distinguer les produits selon l'invention de leurs homologues fluorés connus. Parmi ces essais, on a résumé ceux concernant les propriétés antiagressives. Plus précisément, on a évalué la diminution de l'agressivité intergroupes selon la technique suivante : a.près avoir séjourné pendant 3 semaines de part et d'autre d'une cloison opaque séparant leur cage par le milieu, des groupes de trois souris mâles de 20 g chacune environ reçoivent, par voie intrapéritonéale, les produits à tester en solution dans de l'eau distillée, les animaux témoins ne recevant que de l'eau distillée par voie intrapéritonéale. Une demi-heure plus tard, les deux groupes d'une même cage sont réunis par retrait de la cloison opaque et on note le nombre de combats qui surviennent en 10 min. On a utilisé trois cages pour chaque produit à tester et six cages pour le lot témoin ne recevant pas les produits à tester.
Les résultats du tableau I ci-après donnent la diminution de l'agressivité intergroupes par rapport au lot témoin, tous les produits à tester étant administrés à la dose de 8 mg/kg par voie intrapéritonéale. […]

[6] = test system: homme; assay: Clinical use as sedative and antidepressant agents; assay type: in vivo; conditions: clinic
[7] = test system: cobaye; assay: Local anaesthetic effect, intradermal injection, pin-prick test; assay type: in vivo; conditions: guinea pig, intradermal 0,2 ml, concentrations 0,5 and 1%
Experimental: L'effet anesthésique a été étudié chez le cobaye après injection du CRL 40827 par voie intradermique sous un volume de 0,2 ml aux concentrations de 0,1, 0,5 et 1% (3 cobayes par dose). Chaque animal reçoit le sérum physiologique, la procaine et le CRL 40827 dans des zones délimitées.
Le test qui consiste en une série de six piqûres de la zone injectée est réalisé 5, 10, 15, 20, 25 et 30 min après l'injection.

[8] = test system: souris; assay: Motility reduced by hypoxic aggression (acute hypobaric anoxia); assay type: in vivo; conditions: mouse
Experimental: Une demi-heure après avoir reçu le CRL 40827, les souris (10 par dose, 20 témoins) sont soumises à une anoxie hypobare aiguë (dépression de 8 x 10^4 Pa en 90 s, détente de 45 s), puis elles sont placées en actimètre où leur motilité est enregistrée pendant 10 min.
as §2

[9] = test system: souris; assay: Interaction with oxotremorine; assay type: in vivo; conditions: mouse
Experimental: Le CRL 40827 est administré à des lots de 6 souris 30 min avant l'injection intrapéritonéale de 0,5 mg/kg d'oxotrémo- rine. On observe que, dès la dose de 0,5 mg/kg, le CRL 40827 antagonise l'action hypothermisante de l'oxotrémorine; cet effet est très net à 32 mg/kg.
as §2

[10] = test system: souris; assay: Motility reduced by habituation to the enclosure; assay type: in vivo; conditions: mouse; high dose 34 mg/kg
Experimental: Après 18 h de séjour dans les actimètres, les souris (6 par dose, 12 témoins) reçoivent le CRL 40827. Elles sont aussitôt replacées dans leurs enceintes respectives et, 30 min plus tard, on enregistre leur motilité pendant 30 min.
as §2

[11] = test system: souris; assay: Four-plate test, traction and electroshock; assay type: in vivo; conditions: mouse, 30 min after dosing
Experimental: Le test est pratiqué sur des lots de 10 souris, 30 min après l'administration de CRL 40827.
as §2

[12] = test system: souris; assay: Asphyxic anoxia (gallamine triethiodide); assay type: in vivo; conditions: mouse; highest dose 34 mg/kg, 30 min before gallamine triethiodide i.p.
Experimental: Des lots de 10 souris reçoivent le CRL 40827 30 min avant l'administration intrapéritonéale d: 34 mg/kg de triiodoéthy- late de gallamine. A la plus forte dose (34 mg/kg),le CRL 40827 empêche l'apparition des convulsions et de la mort chez 40% des animaux.
as §2

[13] = test system: chien anesthésié au Nembutal; assay: Biliary secretion, dog anaesthetised with Nembutal; assay type: in vivo; conditions: normal 1,5 ml
Experimental: as §3

[14] = test system: souris; assay: Spontaneous motility (actimeter); assay type: in vivo; conditions: mouse, recorded 30 min, 30 min after dosing
Experimental: Une demi-heure après avoir reçu le CRL 40827, les souris (6 par dose, 12 témoins) sont placées en actimètre où leur motilité est enregistrée pendant 30 min.
as §2

[15] = test system: rat; assay: Interaction with apomorphine, rat; assay type: in vivo; conditions: i.p. 30 min before apomorphine 0,5 mg/kg s.c.
Experimental: as §1
Le CRL 40 827 est administré à des lots de 6 rats 30 min avant l'injection sous-cutanée de 0,5 mg/kg d'apomorphine.
as §2

[16] = test system: rat éveillé génétiquement hypertendu; assay: Cardiovascular action, awake genetically hypertensive rat; assay type: in vivo
[17] = test system: souris; assay: Interaction with reserpine (hypothermia, ptosis); assay type: in vivo; conditions: mouse
Experimental: Quatre heures après l'injection intrapéritonéale de 2,5 mg/kg de réserpine, des lots de 6 souris reçoivent le CRL 40827.
as §2

In the case of `CC(C)(C)NCC(O)c1ccccc1F` (stereo not drawn) [CRL 40827, chlorhydratede 1-(2-fluorophényl)-2-tertiobutylamino-1-éthanol], the “dose maximale non mortelle, DL-0” value [1] is reported as > 64 mg/kg and < 128 mg/kg, the “index de stéréotypies (amphétamine)” value ([2]; 4 mg/kg) is reported as “diminution isolée” and the “stéréotypies amphétaminiques” value ([2]; amphetamine 2 mg/kg i.p. 30 min after the compound) is reported as “ne modifie pas”. For the same compound, the minimal effective dose ([3]; Canis lupus familiaris, dog, read-out: dose from which the effets hypertenseurs de la noradrénaline are diminished) was 1 mg/kg, the “pression artérielle et fréquence cardiaque” value ([3]; anaesthetised dog) was “hypotenseur et tachycardisant” and the “dose of maximal effect on the effets hypertenseurs de la noradrénaline” value ([3]; dog) was about 10 mg/kg. The débit cardiaque ([3]; in vivo) was “reste égal”, the débits sanguins locaux ([3]; in vivo) was “n'augmentent pas” and the respiration ([3]; in vivo) was “stimule la respiration”. For the same compound, the “résistances vasculaires des territoires explorés (vertébral, fémoral et rénal) et résistance périphérique totale” value ([3]; in vivo) was “diminue”, the “travail du ventricule gauche et diastole” value ([3]; in vivo) was “diminue le travail du ventricule gauche et raccourcit la diastole” and the débit biliaire [4] was “augmente”. The “agressivité intergroupes / effet antiagressif” value [5] was “diminue l'agressivité intergroupes”, the “résultats cliniques dans le domaine psychotrope en tant qu'agents sédatifs et antidépresseurs” value [6] was “bons résultats” and the “effet anesthésique local” value [7] was “présente un effet anesthésique local”. For the same compound, the “récupération motrice après anoxie hypobare” value [8] was “n'entraîne pas d'amélioration”, the “signes de stimulation cholinergique périphérique (oxotrémorine)” value [9] was “laisse inchangés” and the “tremblements provoqués par l'oxotrémorine” value [9] was “ne modifie pas”. The “action hypothermisante de l'oxotrémorine (antagonisme)” value ([9]; 32 mg/kg) was “très net”, the “action hypothermisante de l'oxotrémorine” value ([9]; from 0,5 mg/kg, 30 min before oxotremorine 0,5 mg/kg i.p.) was “antagonise” and the “activité motrice (souris habituées à l'enceinte)” value [10] was “semble provoquer une reprise modérée”. For the same compound, the “effets convulsivants de l'électrochoc” value [11] was “à forte dose, s'oppose aux effets convulsivants”, the “incapacité motrice (traction)” value [11] was “ne provoque pas d'incapacité motrice majeure” and the “nombre de passages punis (test des quatre plaques)” value [11] was “n'entraîne pas d'augmentation”. For the same compound, the “animaux chez lesquels l'apparition des convulsions et de la mort est empêchée” value [12] was 40%, the “débit biliaire recueilli en 30 min” value ([13]; dog, 5 mg/kg intraduodenal) was 2,25 ml and the “débit biliaire recueilli en 30 min” value ([13]; dog, 10 mg/kg intraduodenal) was 2,5 ml. For the same compound, the “débit biliaire recueilli en 30 min” value ([13]; dog, 2,5 mg/kg intraduodenal) was 1,75 ml, the “activité motrice spontanée” value [14] was “ne modifie pratiquement pas” and the “stéréotypies induites par l'apomorphine” value [15] was “laisse inchangées”. The “pression artérielle et fréquence cardiaque” value [16] was “hypotenseur et tachycardisant”, the “ptôsis réserpinique” value [17] was “sans modifier” and the “hypothermie réserpinique” value ([17]; from 0,5 mg/kg, 4 h after reserpine 2,5 mg/kg i.p.) was “combat nettement”.
